# Experimental data taken from patent US20020009713A1, “Methods for identifying modulators of neuronal growth” (priority 2000, published 2002).
# B1: BDNF: brain-derived neurotrophic factor; recombinant human BDNF (protein, UniProt P23560 19-247, looked up)
# Neurotrophic factor BDNF …: APMKEANIRGQGGLAYPGVRTHGTLESVNGPKAGSRGLTSLADTFEHVIEELLDEDQKVRPNEENNKDADLYTSRVMLSSQVPLEPPLLFLLEEYKNYLDAANMSMRVRRHSDPARRGELSVCDSISEWVTAADKKTAVDMSGGTVTVLEKVPVSKGQLKQYFYETKCNPMGYTKEGCRGIDKRHWNSQCRTTQSYVRALTMDSKKRIGWRFIRIDTSCVCTLTIKRGR
# B2: NGF: nerve growth factor purified from mouse salivary glands (protein, UniProt P01139 122-241, looked up)
# Beta-nerve growth factor: SSTHPVFHMGEFSVCDSVSVWVGDKTTATDIKGKEVTVLAEVNINNSVFRQYFFETKCRASNPVESGCRGIDSKHWNSYCTTTHTFVKALTTDEKQAAWRFIRIDTACVCVLSRKATRRG
# Tests used:
# rat sympathetic neurons [1] = assay: MTT survival assay of cultured sympathetic neurons; assay type: cell-based
# Procedure: Neurons were plated at low density (approximately one ganglion/well) in Nunclon™ 4-well culture dishes (Gibco BRL, Burlington, Ontario, Canada), coated with either rat tail collagen or poly-D-lysine and laminin (both from Collaborative Biomedical Products, Bedford, Mass.). Culture medium was UltraCulture (BioWhittaker, Walkersville, Md.), supplemented with 3% rat serum (Harlan Bioproducts, Madison, Wis.), 2 mM glutamine, 100 U/ml penicillin, 100 μg/ml streptomycin (all from BioWhittaker), and for the first two days, 7 μM cytosine arabinoside (Sigma-Aldrich Canada Ltd., Oakville, Ontario, Canada).
# (§1) NGF-dependent neurons were selected by culturing sympathetic neurons for five days in the presence of 50 ng/ml NGF. Neurons were washed three times for one hour each in neurotrophin-free media, and were then fed with media containing 10 ng/ml NGF alone, or various concentrations of NGF plus either 100 ng/ml BDNF, 10 μg/ml αBDNF, or a 1:100 dilution of antiserum containing the p75^NTR antibody, REX (Weskamp and Reichardt, Neuron 6: 649-663, 1991). Each condition was repeated in triplicate, and analysis of survival was performed 48 hours later by using nonradioactive cell proliferation (MTT) assays (Celltitre 96; Promega; Belliveau et al., J. Cell Biol. 136:375-388, 1997). Specifically, 50 μl of the MTT reagent was added to 500 μl media in each well, and incubated for two hours at 37° C. After aspiration of the MTT containing media, 100 μl of a 0.065N HCl/isopropanol mixture was added to each well to lyse the cells, and colorimetric analysis was performed using an ELISA reader. For rat sympathetic neurons, 10 ng/ml NGF represents 100% survival, therefore all other values were considered to be relative to 10 ng/ml NGF. For mouse neurons, 7.5 ng/ml NGF represents 100% survival, and was thus considered to be the 100% survival threshold for neuritogenesis experiments.
# sympathetic neurons [2] = assay: Quantitative dot-blot of MAP2 association with microtubules and microtubule stability; assay type: cell-based, rat; settings: for amount of MAP2 bound to microtubules: two days
# Procedure: FIG. 22 is a schematic illustration showing immuno-dot blot analysis of MAP2 association and tubulin dynamics in SCG neurons. […]
# (§2) Microtubules were isolated from cultured sympathetic neurons, and the relative amount of MAP2 present per microgram tubulin was determined using quantitative dot-blot analysis. […] Depolarization enhances MAP2 levels and CamKII phosphorylation in sympathetic neurons. We performed western blot analysis of sympathetic neurons treated with 10 ng/ml NGF, 50 mM KCl, or NGF+KCl. Lysates containing equal amounts of protein were separated by SDS-PAGE, transferred to nitrocellulose, and then probed for MAP2, phosphorylated-CamKII, phosphorylated-ERKs, or total ERK protein. KCl increases the amount of MAP2 present in sympathetic neurons, and enhances CamKII phosphorylation.
# (§3) Inhibition of either CamKII or MEK is sufficient to inhibit activitydependent dendrite formation. Immunocytochemical analysis for MAP2 on sympathetic neurons cultured in the presence of NGF+KCl with or without 10 um KN62, 75 um PD98059, 100 nM H-89 or 10 uM forskolin. […] In this study, microtubule stability was determined in sympathetic neurons maintained in NGF or NGF+KCl, and treated with selective pharmacological inhibitors.
# sympathetic neurons [3] = assay: Western blot / biochemical analysis of MAP2, phosphorylated-CamKII and phosphorylated-ERKs; assay type: cell-based, rat; settings: for MAP2 levels: FIG. 27, NGF, KCl and kinase inhibitors
# Procedure: as §2
# sympathetic neurons [4] = assay: Activity-dependent dendrite formation, MAP2 immunocytochemistry and image analysis; assay type: cell-based, rat; settings: for activity-dependent dendrite formation (MAP2): NGF+KCl, 10 um KN62, 75 um PD98059
# Procedure: Dendritic growth can be measured as follows. Ninty-six-well plates are coated for […] with rat tail collagen (prepared in a dilution of 1% glacial acetic acid). After one hour, excess collagen is aspirated and allow to dry completely. SCG neurons are dissected, triturated and plated. Cells may also be plated onto 8-well chamber slides. Cells are fed after about three days and, after about five days, are switched to either 50 mM KCl or 10 ng/ml NGF+50 mM KCl for about three additional days. Neurons are washed briefly with PBS and then fixed for 10 minutes with 4% formaldehyde in PBS (freshly prepared). Excess fixative is removed by 3×5 min washes with PBS. Cells are stained for one hour at room temperature with the following antibodies with 3×5 min PBS washes after each incubation: primary antibody—mouse monoclonal IgG1 anti high molecular weight MAP2 (clone AP20, from Sigma), secondary antibody—donkey anti mouse CY3, minimum cross to mouse and rabbit (Jackson Immunochemicals). Cell are mounted and at least three fields of view are captured using an upright fluorescence microscope using 530 excitation/580 emission filters. For each individual neuron in a given field (minimum 250 neurons total), the distance of MAP2 positive staining from the perimeter of the cell body is measured. These measurements are performed and tabulated using NIH image. The tabulated data are then expressed as a population histogram, binning all the measured lengths into 2 μm bins. This analysis gives an overall measure of the extent of dendritic differentiation in the population.
# Neuronal depolarization causes dendrite formation in cultured sympathetic neurons, and NGF enhances this dendritogenesis. FIGS. 19A-19C, 20A, 20B show immunocytochemical analysis of sympathetic neurons cultured in the presence of NGF, switched to 10 ng/ml NGF, 50 mM KCl, or 10 ng/ml NGF+50 mM KCl for two days, and then stained for the dendrite-specific protein MAP2. FIGS. 20A and 20B are high magnification views of fields similar to those shown at lower-magnification in FIGS. 19A and 19C, respectively. The MAP2-immunoreactive processes show morphology characteristic of dendrites. The amount of dendritic formation could be readily quantified.
# as §3
# ERK, Akt, CamKII = assay: Check of inhibitor selectivity for ERK, Akt and CamKII pathways; assay type: cell-based
# [5] = system: mouse sympathetic neurons; assay: MTT survival assay of mouse sympathetic neurons; assay type: cell-based
# Procedure: CD-1 mouse sympathetic neurons were cultured by a modification of the method used to prepare rat neurons. Mouse cultures were essentially prepared the same way, but were dissociated in UltraCulture medium rather than Hanks' balanced saline solution. 3% fetal bovine serum (Gibco) was used instead of rat serum, and 3.5 μM cytosine arabinoside was added to the culture medium on day one post-plating.
# as §1, with “Each condition was repeated in triplicate, and analysis of survival was performed 48 hours later by using nonradioactive cell proliferation (MTT) assays (Celltitre 96; Promega; Belliveau et al., J.” left out, “For mouse neurons, 7.5 ng/ml NGF represents 100% survival, and was thus considered to be the 100% survival threshold for neuritogenesis experiments.” left out
# [6] = system: murine sympathetic neurons; assay: Neuritogenesis assay in wild type and p75NTR-/- murine sympathetic neurons; assay type: cell-based, mouse; settings: 7.5 ng/ml NGF plus 100 ng/ml BDNF
# TrkB = assay: BDNF neutralization: TrkB tyrosine phosphorylation in TrkB-expressing NIH-3T3 cells; assay type: cell-based; settings: 50 ng/ml BDNF, five minutes
# Procedure: To test the capacity of anti-BDNF to neutralize BDNF, TrkB-expressing NIH-3T3 cells were cultured in Dulbecco's modified Eagle medium. Briefly, cells were washed twice and incubated for one hour at 37° C. in buffer, followed by a 30 minute wash at 37° C. in a phosphate-free buffer. Treatment consisted of incubating cells for five minutes with either 50 ng/ml BDNF (Promega) or with BDNF preabsorbed for four hours at 4° C. with increasing concentrations of the BDNF antibody (5-40 μg/ml). In addition, TrkB-3T3 cells were treated with medium only, or medium plus 40 μg/ml nonimmune chicken IgY. Following these treatments, cells were lysed, immunoprecipitated with anti-pan Trk (Hempstead et al., Neuron 9:883-896, 1992), and the immunoprecipitates analyzed for TrkB activation by Western blot analysis with phosphotyrosine antibody 4G10 (Upstate Biotechnology Inc., Lake Placid, N.Y.).
# rat sympathetic neurons [7] = assay: In vitro neuritogenesis assay (neuritic process density); assay type: cell-based; settings: 100 ng/ml BDNF in 10 ng/ml NGF, two days, six experiments
# Procedure: Regulation of neuronal growth was analyzed by an in vitro neuritogenesis assay. Postnatal day one rat sympathetic neurons were cultured in 50 ng/ml NGF for two to three days in order to upregulate p75^NTR, whose increased expression in response to NGF occurs independently of neuronal survival. Following a one hour wash in neurotrophin-free medium, cultures were maintained for an additional two days in 10 ng/ml NGF plus or minus 100 ng/ml BDNF. Fields in sister cultures containing a similar number of neuronal cell bodies were then photographed, and neuritic process density was determined as described below. […]
# Quantitative analysis was performed by using common statistics applied to random sets of lines and determining the number of intersection points per unit area. […] Low density fields were photographed, and the number of visible intersections and bifurcations of cell processes per unit area was considered to be a quantitative measure of process density. Since the number of neurites is a direct function of the number of neurons, however, the number of intersections and bifurcations counted per unit area was normalized to the number of cell bodies in that same area of interest. […] Results are expressed as the mean density plus or minus the standard error of the mean.
# [8] = 10 ng/ml NGF added to 50 mM KCl
molecule,measurement,setting,value
O=S(=O)(NCCNC/C=C/c1ccc(Br)cc1)c1cccc2cnccc12 [H-89],survival of sympathetic neurons (MTT),rat sympathetic neurons [1]; cultured in NGF or NGF+KCl,None of these compounds perturbs
[Cl-].[K+] [KCl],amount of MAP2 bound to microtubules,sympathetic neurons [2]; 50 mM KCl,greatly enhances
same,CamKII phosphorylation,sympathetic neurons [3]; 50 mM KCl,enhances
same,amount of MAP2 present in sympathetic neurons,sympathetic neurons [3]; 50 mM KCl,increases
CN([C@@H](Cc1ccc(OS(=O)(=O)c2cccc3cnccc23)cc1)C(=O)N1CCN(c2ccccc2)CC1)S(=O)(=O)c1cccc2cnccc12 [KN-62],activity-dependent dendrite formation (MAP2),sympathetic neurons [4],completely abolished
same,KCl-induced increase in microtubule stability,sympathetic neurons [2]; neurons maintained in NGF or NGF+KCl,completely inhibit
same,ERK or Akt activation,"ERK, Akt, CamKII",do not affect
same,MAP2 levels,sympathetic neurons [3],reduce
same,survival of sympathetic neurons (MTT),rat sympathetic neurons [1]; cultured in NGF or NGF+KCl,None of these compounds perturbs
same,survival of sympathetic neurons (MTT),rat sympathetic neurons [1]; cultured only in 50 mM KCl,dramatically reduces
COc1cccc(-c2cc(=O)c3ccccc3o2)c1N [PD98059],activity-dependent dendrite formation (MAP2),sympathetic neurons [4],completely abolished
same,CamKII activity,"ERK, Akt, CamKII",does not affect
same,MAP2 levels,sympathetic neurons [3],reduce
B1,mouse sympathetic neuron survival (MTT),[5]; 7.5 or 10 ng/ml NGF plus 100 ng/ml BDNF,did not affect
same,effect on growth,[6]; p75NTR-/- neurons,no effect
same,average decrease of neuronal growth,[6]; wild type mouse cultures,35%
same,tyrosine phosphorylation of TrkB,TrkB,robust increase
same,sympathetic neuron survival (MTT),"rat sympathetic neurons [1]; 100 ng/ml BDNF in 10 ng/ml NGF, two days",no effect
same,average decrease of process network density,rat sympathetic neurons [7],40%
B2,mouse sympathetic neuron survival (MTT),"[5]; 5, 7.5 and 10 ng/ml NGF, three days",maximal
same,KCl-dependent dendritic growth,sympathetic neurons [4]; [8],greatly enhances
same,dendritic growth (MAP2-positive dendrite length),sympathetic neurons [4]; 10 ng/ml NGF on its own,little ability to cause dendritic growth
same,amount of MAP2 bound to microtubules,sympathetic neurons [2]; [8],enhances this effect to some degree
same,ERK phosphorylation,sympathetic neurons [3]; 10 ng/ml NGF compared with 50 mM KCl,more potent stimulator
